According to patent publication US9718790B2, “Triazine derivative and pharmaceutical composition having an analgesic activity comprising the same” (SHIONOGI & CO., LTD., priority 2010, dated 2017):

Each compound was assayed against human P2X3 receptor (Homo sapiens (Human), UniProt P56373) (assay: Evaluation of human P2X3 receptor inhibitory activity (Fluo-3 calcium fluorescence, FDSS 3000, ATP stimulation)). Conditions: C6BU-1 cells stably expressing human P2X3 receptor.
Assay type: cell-based
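Further: stimulus was 50 nM ATP with fluorescence followed for 3 min, and the response per well was peak post-ATP fluorescence divided by the reading at measurement start.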

Sequence of human P2X3 receptor (P56373 whole entry): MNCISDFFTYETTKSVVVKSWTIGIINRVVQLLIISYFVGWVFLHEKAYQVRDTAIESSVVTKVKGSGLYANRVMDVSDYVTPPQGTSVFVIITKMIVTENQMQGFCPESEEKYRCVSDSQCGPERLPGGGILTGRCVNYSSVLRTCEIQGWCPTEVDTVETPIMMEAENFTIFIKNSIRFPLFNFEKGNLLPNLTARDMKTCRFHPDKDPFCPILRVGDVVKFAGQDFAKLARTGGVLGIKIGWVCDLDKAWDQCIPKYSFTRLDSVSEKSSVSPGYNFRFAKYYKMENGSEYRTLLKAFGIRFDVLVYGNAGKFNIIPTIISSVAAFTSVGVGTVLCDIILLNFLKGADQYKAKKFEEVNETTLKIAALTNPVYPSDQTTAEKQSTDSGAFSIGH

Structure (SMILES)	IC50
C[C@@H](Oc1ccc(/N=c2\[nH]c(=O)n(CCC(=O)NCC(F)(F)F)c(=O)n2Cc2ccc(Cl)cc2)cc1)C(F)(F)F [Compound I-1958]	0.016 µM
C[C@@H](Oc1ccc(/N=c2\[nH]c(=O)n(CC(N)=O)c(=O)n2Cc2ccc(Cl)cc2)cc1)C(F)(F)F [Compound I-1959]	0.065 µM
CNC(=O)Cn1c(=O)[nH]/c(=N\c2ccc(O[C@H](C)C(F)(F)F)cc2)n(Cc2ccc(Cl)cc2)c1=O [Compound I-1960]	0.054 µM
C[C@@H](Oc1ccc(/N=c2\[nH]c(=O)n(CC(=O)NCC(F)(F)F)c(=O)n2Cc2ccc(Cl)cc2)cc1)C(F)(F)F [Compound I-1961]	0.013 µM
O=c1[nH]c(=O)n(Cc2ccc(Cl)cc2)/c(=N/c2ccc(Oc3ccnc(CO)c3)cc2)[nH]1 [Compound I-1962]	0.065 µM
CCn1c(=O)[nH]/c(=N\c2ccc(Oc3cc(C(=O)O)on3)cc2)n(Cc2ccc(Cl)cc2)c1=O [Compound I-1963]	0.013 µM
CCc1cc2cc(/N=c3\[nH]c(=O)n(C[C@H](C)C(=O)O)c(=O)n3Cc3ccc(Cl)cc3)ccc2s1 [Compound I-1964]	0.277 µM
CC1(C)OCC(Cn2c(=O)[nH]/c(=N\c3ccc(OC4CCC4)cc3)n(Cc3ccc(Cl)cc3)c2=O)CO1 [Compound I-1965]	0.003 µM
Cc1[nH]c2ccc(/N=c3\[nH]c(=O)n(CCC(N)=O)c(=O)n3Cc3ccc(Cl)cc3)cc2c1C [Compound I-1966]	0.011 µM
CNC(=O)CCn1c(=O)[nH]/c(=N\c2ccc3[nH]c(C)c(C)c3c2)n(Cc2ccc(Cl)cc2)c1=O [Compound I-1967]	0.008 µM
CCn1c(=O)[nH]/c(=N\c2ccc(Oc3cc(CO)on3)cc2)n(Cc2ccc(Cl)cc2)c1=O [Compound I-1968]	0.015 µM
CCn1c(=O)[nH]/c(=N\c2ccc(Oc3ccc(C(=O)O)cc3)cc2)n(Cc2ccc(Cl)cc2)c1=O [Compound I-1969]	0.021 µM
C[C@H](CO)Cn1c(=O)[nH]/c(=N\c2ccc3oc(CO)cc3c2)n(Cc2ccc(Cl)cc2)c1=O [Compound I-1970]	0.082 µM
CCOC(=O)[C@@H](C)Cn1c(=O)[nH]/c(=N\c2ccc3oc(CO)cc3c2)n(Cc2ccc(Cl)cc2)c1=O [Compound I-1971]	0.061 µM
CCn1c(=O)[nH]/c(=N\c2ccc(Oc3ccc(-c4ncn[nH]4)cc3)cc2)n(Cc2ccc(Cl)cc2)c1=O [Compound I-1973]	0.002 µM
O=c1[nH]/c(=N\c2ccc(OC3CCC3)cc2)n(Cc2ccc(Cl)cc2)c(=O)n1CC(CO)CO [Compound I-1974]	0.007 µM
Cc1cc(Oc2ccc(/N=c3\[nH]c(=O)n(CCC(=O)O)c(=O)n3CC3CCC(C)CC3)cc2)ccn1 (stereo not shown) [Compound I-1976]	0.017 µM
NC(=O)Cn1c(=O)[nH]/c(=N\c2ccc(Oc3ccnc(O)c3)cc2)n(Cc2ccc(Cl)cc2)c1=O [Compound I-1977]	0.005 µM
CNC(=O)Cn1c(=O)[nH]/c(=N\c2ccc(Oc3ccnc(O)c3)cc2)n(Cc2ccc(Cl)cc2)c1=O [Compound I-1978]	0.005 µM
O=C(Cn1c(=O)[nH]/c(=N\c2ccc(Oc3ccnc(O)c3)cc2)n(Cc2ccc(Cl)cc2)c1=O)NCCO [Compound I-1979]	0.004 µM
Cc1ccc(Oc2ccc(/N=c3\[nH]c(=O)n(CC(=O)NCCO)c(=O)n3Cc3ccc(Cl)cc3)cc2)cn1 [Compound I-1980]	0.007 µM
CC(C)Oc1ccc(/N=c2\[nH]c(=O)[nH]c(=O)n2Cc2ccc(Cl)cc2)cc1 [Compound I-1981]	0.354 µM
CC1(C)OCC(Cn2c(=O)[nH]/c(=N\c3ccc4nc(C5CC5)sc4c3)n(Cc3ccc(Cl)cc3)c2=O)CO1 [Compound I-1982]	0.009 µM

Structure (SMILES)	IC50
O=c1[nH]/c(=N\c2ccc3nc(C4CC4)sc3c2)n(Cc2ccc(Cl)cc2)c(=O)n1CC(CO)CO [Compound I-1983]	0.01 µM
COc1cc(/N=c2\[nH]c(=O)n(CC3COC(C)(C)OC3)c(=O)n2Cc2ccc(Cl)cc2)ccc1OC(C)C [Compound I-1984]	0.009 µM
COc1cc(/N=c2\[nH]c(=O)n(CC(CO)CO)c(=O)n2Cc2ccc(Cl)cc2)ccc1OC(C)C [Compound I-1985]	0.011 µM
O=c1[nH]/c(=N\c2ccc(Oc3ccnc(CO)c3)cc2)n(Cc2ccc(Cl)cc2)c(=O)n1CCO [Compound I-1986]	0.016 µM
Cc1cc(Oc2ccc(/N=c3\[nH]c(=O)n(C[C@H](O)CO)c(=O)n3Cc3ccc(Cl)cc3)cc2)ccn1 [Compound I-1987]	0.007 µM
CCn1c(=O)[nH]/c(=N\c2ccc(Oc3ccccc3C(=O)OC)cc2)n(Cc2ccc(Cl)cc2)c1=O [Compound I-1988]	0.391 µM
CCOC(=O)COc1ccc(/N=c2\[nH]c(=O)n(CC)c(=O)n2Cc2ccc(Cl)cc2)cc1 [Compound I-1989]	0.619 µM
CCOC(=O)CCn1c(=O)[nH]/c(=N\c2ccc3nc(C)sc3c2)n(CC2CCC(C)CC2)c1=O (stereo not shown) [Compound I-1990]	0.002 µM
CCn1c(=O)[nH]/c(=N\c2ccc(Oc3ccccc3C(=O)O)cc2)n(Cc2ccc(Cl)cc2)c1=O [Compound I-1992]	0.24 µM
CCn1c(=O)[nH]/c(=N\c2ccc(Oc3ccc(S(N)(=O)=O)cc3)cc2)n(Cc2ccc(Cl)cc2)c1=O [Compound I-1993]	0.006 µM
Cc1nc2ccc(/N=c3\[nH]c(=O)n(CCC(=O)O)c(=O)n3CC3CCC(C)CC3)cc2s1 (stereo not shown) [Compound I-1994]	0.01 µM
O=c1[nH]/c(=N\c2ccc(Oc3ccnc(CO)c3)cc2)n(Cc2ccc(Cl)cc2)c(=O)n1CCCO [Compound I-1995]	0.005 µM
CCn1c(=O)[nH]/c(=N\c2ccc(Oc3cncc(C(N)=O)c3)cc2)n(Cc2ccc(Cl)cc2)c1=O [Compound I-1996]	0.004 µM
C[C@@H](Oc1ccc(/N=c2\[nH]c(=O)n(CCC(=O)NCCO)c(=O)n2Cc2ccc(Cl)cc2)cc1)C(F)(F)F [Compound I-1998]	0.034 µM
C[C@@H](Oc1ccc(/N=c2\[nH]c(=O)n(CC(=O)NCCO)c(=O)n2Cc2ccc(Cl)cc2)cc1)C(F)(F)F [Compound I-1999]	0.028 µM
COc1cc(/N=c2\[nH]c(=O)n(CCCOC3CCCCO3)c(=O)n2Cc2ccc(Cl)cc2)ccc1OC(C)C (stereo not shown) [Compound I-2000]	0.003 µM
COc1cc(/N=c2\[nH]c(=O)n(C[C@H]3COC(C)(C)O3)c(=O)n2Cc2ccc(Cl)cc2)ccc1OC(C)C [Compound I-2001]	0.005 µM
COc1cc(/N=c2\[nH]c(=O)n(CCCO)c(=O)n2Cc2ccc(Cl)cc2)ccc1OC(C)C [Compound I-2002]	0.008 µM
COc1cc(/N=c2\[nH]c(=O)n(C[C@H](O)CO)c(=O)n2Cc2ccc(Cl)cc2)ccc1OC(C)C [Compound I-2004]	0.013 µM
COc1cc(/N=c2\[nH]c(=O)n(CCOC3CCCCO3)c(=O)n2Cc2ccc(Cl)cc2)ccc1OC(C)C (stereo not shown) [Compound I-2005]	0.003 µM
COc1cc(/N=c2\[nH]c(=O)n(CCO)c(=O)n2Cc2ccc(Cl)cc2)ccc1OC(C)C [Compound I-2006]	0.036 µM
CCn1c(=O)[nH]/c(=N\c2ccc(Oc3ccnc(OC)n3)cc2)n(Cc2ccc(Cl)cc2)c1=O [Compound I-2008]	0.007 µM
CCn1c(=O)[nH]/c(=N\c2ccc(Oc3ccccc3C(N)=O)cc2)n(Cc2ccc(Cl)cc2)c1=O [Compound I-2009]	0.472 µM

Structure (SMILES)	IC50
O=c1[nH]/c(=N\c2ccc(OC3CCC3)cc2)n(Cc2ccc(Cl)cc2)c(=O)n1CCO [Compound I-2010]	0.054 µM
CNC(=O)c1cc(Oc2ccc(/N=c3\[nH]c(=O)n(C)c(=O)n3Cc3ccc(C)cc3)cc2)ccn1 [Compound I-2012]	0.009 µM
CCn1c(=O)[nH]/c(=N\c2ccc(Oc3ccnc(C(=O)NC)c3)cc2)n(Cc2ccc(C)cc2)c1=O [Compound I-2013]	0.003 µM
CCOC(=O)C1(COc2ccc(/N=c3\[nH]c(=O)n(CC)c(=O)n3Cc3ccc(Cl)cc3)cc2)CC1 [Compound I-2014]	0.36 µM
CCn1c(=O)[nH]/c(=N\c2ccc(Oc3ccc(C)c(C(=O)OC)c3)cc2)n(Cc2ccc(Cl)cc2)c1=O [Compound I-2015]	0.032 µM
CCn1c(=O)[nH]/c(=N\c2ccc(Oc3ccnc(O)n3)cc2)n(Cc2ccc(Cl)cc2)c1=O [Compound I-2016]	0.005 µM
CCn1c(=O)[nH]/c(=N\c2ccc(Oc3ccc(C)c(C(=O)O)c3)cc2)n(Cc2ccc(Cl)cc2)c1=O [Compound I-2017]	0.041 µM
Cn1c(=O)[nH]/c(=N\c2ccc(Oc3ccnc(CO)c3)cc2)n(Cc2ccc(Cl)cc2)c1=O [Compound I-2018]	0.022 µM
CNC(=O)CCn1c(=O)[nH]/c(=N\c2ccc(OC(C)C)c(Cl)c2)n(CC2CCC(C)CC2)c1=O (stereo not shown) [Compound I-2019]	0.005 µM
CC1CCC(Cn2c(=O)n(CCC(N)=O)c(=O)[nH]/c2=N\c2ccc(OC(C)C)c(Cl)c2)CC1 (stereo not shown) [Compound I-2020]	0.006 µM
CCn1c(=O)[nH]/c(=N\c2ccc(OCC3(C(=O)O)CC3)cc2)n(Cc2ccc(Cl)cc2)c1=O [Compound I-2021]	0.23 µM
CC1CCC(Cn2c(=O)n(CCO)c(=O)[nH]/c2=N\c2ccc(Oc3ccnc(O)c3)cc2)CC1 (stereo not shown) [Compound I-2022]	0.007 µM
COC(=O)CCn1c(=O)[nH]/c(=N\c2ccc(OC(C)C)c(Cl)c2)n(Cc2ccc(C)cc2)c1=O [Compound I-2023]	0.004 µM
O=c1[nH]/c(=N\c2ccc3nc(C4CC4)sc3c2)n(Cc2ccc(Cl)cc2)c(=O)n1CCOC1CCCCO1 (stereo not shown) [Compound I-2024]	0.005 µM
Cc1cc2cc(/N=c3\[nH]c(=O)n(CCCOC4CCCCO4)c(=O)n3Cc3ccc(Cl)cc3)ccc2o1 (stereo not shown) [Compound I-2025]	0.005 µM
O=c1[nH]/c(=N\c2ccc3nc(C4CC4)sc3c2)n(Cc2ccc(Cl)cc2)c(=O)n1CCO [Compound I-2026]	0.022 µM
Cc1cc2cc(/N=c3\[nH]c(=O)n(CCCO)c(=O)n3Cc3ccc(Cl)cc3)ccc2o1 [Compound I-2027]	0.017 µM
CCn1c(=O)[nH]/c(=N\c2ccc(Oc3cccc(C(=O)OC)c3)cc2)n(Cc2ccc(C)cc2)c1=O [Compound I-2028]	0.013 µM
CCn1c(=O)[nH]/c(=N\c2ccc(Oc3ccc(C(=O)OC)cc3)cc2)n(Cc2ccc(C)cc2)c1=O [Compound I-2029]	0.004 µM
COC(=O)c1ccc(Oc2ccc(/N=c3\[nH]c(=O)n(C)c(=O)n3Cc3ccc(C)cc3)cc2)cc1 [Compound I-2030]	0.006 µM
COC(=O)c1cccc(Oc2ccc(/N=c3\[nH]c(=O)n(C)c(=O)n3Cc3ccc(C)cc3)cc2)c1 [Compound I-2031]	0.052 µM
